Data published in patent US20240139280A1, “USE OF HIF-1-ALPHA INHIBITORS IN CANCER IMMUNOTHERAPY” (ONCOC4, INC., priority 2021, published 2024).

Assays:
[1] = test system: PD-L1 expression in 4T1 cells; experiment: PD-L1 expression in 4T1 cells by flow cytometry; assay type: cell-based, murine; conditions: normoxia, echinomycin 0.45 nM, 48 hours
E0771 tumor = E0771 tumor growth in mice (incl. shRNA sublines, cell depletion); assay type: in vivo
Procedure: FIGS. 3A-D show the therapeutic effects of echinomycin on tumor growth in immunodeficient and immunocompetent mice. FIG. 3A. Experimental design. Three murine tumor lines were tested: 4T1, E0771, or MC38. For each, immunodeficient and immunocompetent mice were inoculated (day 0), and treatment was initiated with control liposomes (vehicle) or echinomycin liposomes (LEM) on day 6, indicated by arrows in FIGS. 3B-3D. The kinetics of tumor growth were compared to deduce the role of adaptive immunity in the therapeutic effects of echinomycin. FIG. 3B. 4T1 cells (1×10^6) were transplanted into mammary fat pad of NSG and BALB/c mice, which received vehicle or echinomycin (0.15 mg/kg) (arrows). Mean tumor volumes±SEM are shown for one of two independent experiments (n=10/group). FIG. 3C. Kinetics of E0771 tumor growth. E0771 cells (0.7×10^6) were transplanted into mammary fat pad of NSG and C57BL/6 mice, which received vehicle or echinomycin (0.25 mg/kg) (arrows). Mean tumor volumes±SEM are shown for one of two independent experiments (n=5/group). FIG. 3D. Kinetics of MC38 tumor growth. MC38 cells (1×10^6) were transplanted subcutaneously into NSG and C57BL/6 mice, which received vehicle or echinomycin (0.15 mg/kg) (blue arrows). Mean tumor volumes±SEM are shown for one of two independent experiments (n=5/group).
FIGS. 4A-D show the effects of pharmacological and/or genetic targeting of HIF-1α on E0771 tumor growth in immunodeficient or immunocompetent mice. FIG. 4A. Experimental design. Three sublines of E0771 were generated by lentiviral transduction: scrambled shRNA (sh^−Scr), or shRNA for the Hif1α (sh^−Hif1α) or Pdl1 (sh^−Pdl1) genes. For each subline, 0.5×10^6 cells were orthotopically transplanted into NSG or C57BL/6 mice (day 0), which received vehicle or echinomycin (0.25 mg/kg) starting day 6. FIG. 4B. Effects of Hif1α or Pdl1 knockdown on E0771 growth among immunodeficient or immunocompetent recipients. FIG. 4C. Effects of vehicle or echinomycin on sh^−Scr, sh^−Hif1α, or sh^−Pdl1 E0771 growth in immunocompetent C57BL/6 recipients. FIG. 4D. Effects of vehicle or echinomycin (arrows) on sh^−Scr, sh^−Hif1α, or sh^−Pdl1 E0771 growth in immunodeficient NSG recipients. Data shown are means+/−SEM (n=5/group) and are representative of 2 experiments.
FIGS. 5A-D show at echinomycin potentiates the therapeutic effect of anti-CTLA-4 antibody. FIG. 5A. Experimental design. In 4T1, E0771, or MC38 syngeneic tumor models, the effects of echinomycin on tumor growth were tested in combination with anti-CTLA-4 therapy (9D9). Tumor growth kinetics in mice receiving vehicle, echinomycin, and anti-CTLA-4 (9D9) monotherapies, or anti-CTLA-4+anti-PD-1 (9D9+RMP1-14) are shown. Starting on day 6 after tumor cell inoculation, mice received vehicle or echinomycin and/or various mAbs. The mean tumor volumes±SEM are shown for each group. FIG. 5B. Effects of 9D9+echinomycin on 4T1 tumor growth. BALB/c mice received vehicle, liposomal echinomycin (LEM, 0.15 mg/kg) (blue arrows), 9D9 (0.2 mg/mouse/injection) (red arrows), or both (n=10/group). Data shown for one of three independent experiments. FIG. 5C. Effects of 9D9+echinomycin on syngeneic E0771 growth. E0771 cells (0.5×10^6) were orthotopically transplanted into the mammary fat pads of C57BL/6 mice. Mice received vehicle or echinomycin (0.25 mg/kg) and/or various mAbs (0.2 mg/mouse/injection) (red arrows). Representative data shown for one of three independent experiments (n=5/group). FIG. 5D. […]

In the case of `CSC1SC[C@H]2C(=O)N(C)[C@@H](C(C)C)C(=O)OC[C@@H](NC(=O)c3cnc4ccccc4n3)C(=O)N[C@@H](C)C(=O)N(C)[C@@H]1C(=O)N(C)[C@@H](C(C)C)C(=O)OC[C@@H](NC(=O)c1cnc3ccccc3n1)C(=O)N[C@@H](C)C(=O)N2C` (stereo in doubt) [echinomycin, N,N′-(2,4,12,15,17,25-hexamethyl-11,24-bis(1-methylethyl)-27-(methylthio)-3,6,10,13,16,19,23,26-octaoxo-9,22-dioxa-28-thia-2,5,12,15,18,25-hexaazabicyclo(12.12.3)nonacosane-7,20-diyl)bis(2-quinoxalinecarboxamide)], the PD-L1 protein [1] is reported as “reduced PD-L1 protein”, the “E0771 tumor growth, combination study” value (E0771 tumor; C57BL/6, echinomycin 0.25 mg/kg, mAbs 0.2 mg/mouse/injection, vs vehicle) is reported as “significant inhibition of tumor growth” and the “sh-Scr E0771 tumor growth” value (E0771 tumor; C57BL/6 compared to NSG recipients, echinomycin 0.25 mg/kg) is reported as “more effectively inhibited”. The “sh-Pdl1 E0771 tumor growth” value (E0771 tumor; C57BL/6 or NSG recipients, echinomycin 0.25 mg/kg) was “did not further suppress”, the E0771 tumor growth (E0771 tumor; immunocompetent C57BL/6, echinomycin 0.25 mg/kg) was “therapeutic effect on immune competent” and the “sh-Hif1α E0771 tumor growth” value (E0771 tumor; regardless of recipient strain (C57BL/6, NSG), echinomycin 0.25 mg/kg) was “did not inhibit”.
